Source: patent publication US10899788B2, “Cyclic phosphate substituted nucleoside compounds and methods of use thereof for the treatment of viral diseases” (MERCK SHARP & DOHME CORP., priority 2016, dated 2021)

Legend:
[1] = system: HCV replicon cells (1b-Con1); test: Replicon activity assay (cell-based anti-HCV activity); conditions: Hepatitis C virus, 72 h, three days post-dosing, replicon RNA level by real-time RT-PCR, read-out: EC50 (1b) Range
Method: (§1) To measure cell-based anti-HCV activity of the compounds of the present invention, replicon cells (1b-Con1) are seeded at 5000 cells/well in 96-well plates one day prior to treatment with a compound of the invention. Various concentrations of a test compound of the invention in DMSO are then added to the replicon cells, with the final concentration of DMSO at 0.5% and fetal bovine serum at 10% in the assay media. Cells are harvested three days post-dosing, and the replicon RNA level is determined using real-time RT-PCR (Taqman assay) with GAPDH RNA as endogenous control. EC50 values are calculated from experiments with 10 serial twofold dilutions of the inhibitor in triplicate. To measure cytotoxicity in replicon cells of an inhibitor, an MTS assay is performed according to the manufacturer's protocol for CellTiter 96 Aqueous One Solution Cell Proliferation Assay (Promega, Cat #G3580) three days post dosing on cells treated identically as in replicon activity assays. […] Cytotoxicity in other types of cells may be measured using the same MTS protocol.
(§2) Data were obtained using this method for selected compounds of the present invention, and are set forth below in Table 2.

[2] = Cytotoxicity assay in replicon cells (MTS); format: cell-based; conditions: HCV replicon cells (1b-Con1), three days post dosing, head prints EDU, method MTS, read-out: CC50 (EDU) Range
Method: as §1, §2

Row | SMILES | EC50 [1] | CC50 at 3 days [2]
1 | CC(C)OC(=O)CCO[P@@]1(=O)OC[C@H]2O[C@@H](n3ccc(=O)[nH]c3=O)[C@](C)(N)[C@@H]2O1 [Compound 28A] | > 10 µM | > 50 µM
2 | CC(C)OC(=O)CCCOP1(=O)OC[C@H]2O[C@@H](n3ccc(=O)[nH]c3=O)[C@](C)(C#N)[C@@H]2O1 (some centres unmarked) [Compound 1A] | 1 to 10 µM | > 50 µM
3 | COC(=O)CCCCO[P@]1(=O)OC[C@H]2O[C@@H](n3ccc(=O)[nH]c3=O)[C@](C)(Cl)[C@@H]2O1 [Compound 23B] | 1 to 10 µM | > 50 µM
4 | CCOc1nc(N)nc2c1ncn2[C@@H]1O[C@@H]2CO[P@@](=O)(OCCCC(=O)OC(C)C)O[C@H]2[C@@]1(C)Cl [Compound 9B] | ≤ 0.25 µM | > 50 µM
5 | C#C[C@@]1(O)[C@@H]2O[P@](=O)(OCCCCC(=O)OC3CCCC3)OC[C@H]2O[C@H]1n1ccc(=O)[nH]c1=O [Compound 24B] | ≤ 0.25 µM | > 50 µM
6 | C#C[C@]1(C)[C@@H]2O[P@](=O)(OCCCCC(=O)OCC)OC[C@H]2O[C@H]1n1ccc(=O)[nH]c1=O [Compound 20B] | > 10 µM | > 50 µM
7 | CC(C)OC(=O)CCCO[P@]1(=O)OC[C@H]2O[C@@H](n3ccc(N)nc3=O)[C@](C)(N)[C@@H]2O1 [Compound 10B] | > 10 µM | > 50 µM
8 | CC(C)OC(=O)CCCCO[P@]1(=O)OC[C@H]2O[C@@H](n3ccc(=O)[nH]c3=O)[C@](C)(N)[C@@H]2O1 [Compound 14B] | > 10 µM | > 50 µM
9 | CC(C)OC(=O)CCO[P@@]1(=O)OC[C@H]2O[C@@H](n3ccc(=O)[nH]c3=O)[C@](C)(Cl)[C@@H]2O1 [Compound 27A] | 1 to 10 µM | –
10 | CC(C)OC(=O)CCO[P@]1(=O)OC[C@H]2O[C@@H](n3ccc(=O)[nH]c3=O)[C@](C)(Cl)[C@@H]2O1 [Compound 27B] | 1 to 10 µM | –
11 | CC(C)OC(=O)CCCO[P@]1(=O)OC[C@H]2O[C@@H](n3ccc(N)nc3=O)[C@](C)(Cl)[C@@H]2O1 [Compound 8B] | 0.25 to 1 µM | > 50 µM
12 | C#C[C@@]1(O)[C@@H]2O[P@@](=O)(OCCCCC(=O)OC3CCCC3)OC[C@H]2O[C@H]1n1ccc(=O)[nH]c1=O [Compound 24A] | 1 to 10 µM | > 50 µM
13 | CC(C)OC(=O)CCCO[P@@]1(=O)OC[C@H]2O[C@@H](n3ccc(=O)[nH]c3=O)[C@](C)(N)[C@@H]2O1 [Compound 12A] | > 10 µM | > 50 µM
14 | C#C[C@]1(C)[C@@H]2O[P@](=O)(OCCCC(=O)OC(C)C)OC[C@H]2O[C@H]1n1ccc(=O)[nH]c1=O [Compound 11B] | 0.25 to 1 µM | > 50 µM
15 | CCOc1nc(N)nc2c1ncn2[C@@H]1O[C@@H]2CO[P@](=O)(OCCCC(=O)OC(C)C)O[C@H]2[C@@]1(C)N [Compound 3A] | > 10 µM | > 50 µM
16 | C[C@@]1(Cl)[C@@H]2O[P@@](=O)(OCCCC(=O)OC3CCCC3)OC[C@H]2O[C@H]1n1ccc(N)nc1=O [Compound 6A] | > 10 µM | > 50 µM
17 | C[C@@]1(Cl)[C@@H]2O[P@](=O)(OCCCCC(=O)OC3CCCC3)OC[C@H]2O[C@H]1n1ccc(=O)[nH]c1=O [Compound 19B] | 0.25 to 1 µM | > 50 µM
18 | C[C@@]1(Cl)[C@@H]2O[P@@](=O)(OCCCCC(=O)OC3CCCC3)OC[C@H]2O[C@H]1n1ccc(=O)[nH]c1=O [Compound 19A] | 1 to 10 µM | > 50 µM
19 | C#C[C@]1(C)[C@@H]2O[P@](=O)(OCCCCC(=O)OC(C)C)OC[C@H]2O[C@H]1n1ccc(=O)[nH]c1=O [Compound 15B] | > 10 µM | > 50 µM
20 | CC(C)OC(=O)CCCCO[P@@]1(=O)OC[C@H]2O[C@@H](n3ccc(=O)[nH]c3=O)[C@](C)(N)[C@@H]2O1 [Compound 14A] | > 10 µM | > 50 µM
21 | CC(C)OC(=O)CCCO[P@@]1(=O)OC[C@H]2O[C@@H](n3ccc(N)nc3=O)[C@](C)(Cl)[C@@H]2O1 [Compound 8A] | 1 to 10 µM | > 50 µM
22 | C#C[C@]1(C)[C@@H]2O[P@@](=O)(OCCCCC(=O)OC(C)C)OC[C@H]2O[C@H]1n1ccc(=O)[nH]c1=O [Compound 15A] | > 10 µM | > 50 µM

Row | SMILES | EC50 [1] | CC50 at 3 days [2]
23 | C[C@@]1(N)[C@@H]2O[P@](=O)(OCCCCC(=O)OC3CCCC3)OC[C@H]2O[C@H]1n1ccc(=O)[nH]c1=O [Compound 17B] | 1 to 10 µM | > 50 µM
24 | CC(C)OC(=O)CCCCCO[P@@]1(=O)OC[C@H]2O[C@@H](n3ccc(=O)[nH]c3=O)[C@](C)(N)[C@@H]2O1 [Compound 25A] | > 10 µM | –
25 | CCOc1nc(N)nc2c1ncn2[C@@H]1O[C@@H]2CO[P@@](=O)(OCCCC(=O)OC(C)C)O[C@H]2[C@@]1(C)N [Compound 3B] | 1 to 10 µM | > 50 µM
26 | C[C@@]1(N)[C@@H]2O[P@](=O)(OCCCC(=O)OC3CCCC3)OC[C@H]2O[C@H]1n1ccc(=O)[nH]c1=O [Compound 5B] | > 10 µM | > 50 µM
27 | C#C[C@]1(C)[C@@H]2O[P@@](=O)(OCCCCC(=O)OC)OC[C@H]2O[C@H]1n1ccc(=O)[nH]c1=O [Compound 22A] | > 10 µM | > 50 µM
28 | CC(C)OC(=O)CCCCCO[P@]1(=O)OC[C@H]2O[C@@H](n3ccc(=O)[nH]c3=O)[C@](C)(N)[C@@H]2O1 [Compound 25B] | > 10 µM | –
29 | C[C@@]1(Cl)[C@@H]2O[P@](=O)(OCCCC(=O)OC3CCCC3)OC[C@H]2O[C@H]1n1ccc(N)nc1=O [Compound 6B] | ≤ 0.25 µM | > 50 µM
30 | COC(=O)CCCCO[P@@]1(=O)OC[C@H]2O[C@@H](n3ccc(=O)[nH]c3=O)[C@](C)(Cl)[C@@H]2O1 [Compound 23A] | 0.25 to 1 µM | > 50 µM
31 | CC(C)OC(=O)CCO[P@]1(=O)OC[C@H]2O[C@@H](n3ccc(=O)[nH]c3=O)[C@](C)(N)[C@@H]2O1 [Compound 28B] | > 10 µM | > 50 µM
32 | CC(C)OC(=O)CCCO[P@]1(=O)OC[C@H]2O[C@@H](n3ccc(=O)[nH]c3=O)[C@](C)(C#N)[C@@H]2O1 [Compound 1B] | 0.25 to 1 µM | > 50 µM
33 | C#C[C@]1(C)[C@@H]2O[P@@](=O)(OCCCC(=O)OC(C)C)OC[C@H]2O[C@H]1n1ccc(=O)[nH]c1=O [Compound 11A] | 1 to 10 µM | > 50 µM
34 | C#C[C@]1(C)[C@@H]2O[P@@](=O)(OCCC(=O)OC(C)C)OC[C@H]2O[C@H]1n1ccc(=O)[nH]c1=O [Compound 26A] | > 10 µM | > 50 µM
35 | CC(C)OC(=O)CCCCO[P@@]1(=O)OC[C@H]2O[C@@H](n3ccc(=O)[nH]c3=O)[C@](C)(Cl)[C@@H]2O1 [Compound 18A] | 1 to 10 µM | > 50 µM
36 | C[C@@]1(N)[C@@H]2O[P@@](=O)(OCCCCC(=O)OC3CCCC3)OC[C@H]2O[C@H]1n1ccc(=O)[nH]c1=O [Compound 17A] | > 10 µM | > 50 µM
37 | C#C[C@@]1(O)[C@@H]2O[P@](=O)(OCCCC(=O)OC(C)C)OC[C@H]2O[C@H]1n1ccc(=O)[nH]c1=O [Compound 13B] | 1 to 10 µM | > 50 µM
38 | CCCCOC(=O)CCCO[P@]1(=O)OC[C@H]2O[C@@H](n3ccc(=O)[nH]c3=O)[C@](C)(N)[C@@H]2O1 [Compound 4B] | 1 to 10 µM | > 50 µM
39 | C#C[C@]1(C)[C@@H]2O[P@](=O)(OCCCCC(=O)OC)OC[C@H]2O[C@H]1n1ccc(=O)[nH]c1=O [Compound 22B] | > 10 µM | > 50 µM
40 | CCOC(=O)CCCCOP1(=O)OC[C@H]2O[C@@H](n3ccc(=O)[nH]c3=O)[C@](C)(N)[C@@H]2O1 (some centres unmarked) [21A or 21B] | > 10 µM | > 50 µM
41 | C#C[C@]1(C)[C@@H]2O[P@](=O)(OCCC(=O)OC(C)C)OC[C@H]2O[C@H]1n1ccc(=O)[nH]c1=O [Compound 26B] | > 10 µM | > 50 µM
42 | CCCCOC(=O)CCCO[P@@]1(=O)OC[C@H]2O[C@@H](n3ccc(=O)[nH]c3=O)[C@](C)(N)[C@@H]2O1 [Compound 4A] | > 10 µM | > 50 µM
43 | CC(C)OC(=O)CCCO[P@]1(=O)OC[C@H]2O[C@@H](n3ccc(=O)[nH]c3=O)[C@](C)(N)[C@@H]2O1 [Compound 12B] | > 10 µM | > 50 µM
44 | C#C[C@]1(C)[C@@H]2OP(=O)(OCCCC(=O)OC3CCCC3)OC[C@H]2O[C@H]1n1ccc(=O)[nH]c1=O (some centres unmarked) [7A or 7B] | ≤ 0.25 µM | –
